Source: US7589170B1, “Synthesis of cyclic peptides” (priority 1998, dated 2009)
Entries after “also recorded” stand apart in the source; their conditions may differ. Like-named read-outs stand apart in the source and are kept apart here.

Tests used:
[1] = as originally found for the isolate from Stylotella aurantium; cited from earlier work
[2] = test system: sympathetic varicosities of the mouse vas deferens; assay: focal extracellular recording of evoked excitatory junction currents (EJC, measure of transmitter release); type: cell-based
Procedure: Each filled circle represents an EJC recorded during 100 minutes. Failure to record an EJC is indicated by filled circles on zero of the y-axis. The lower horizontal line indicates when the mixture of cyclic tetrapeptides (1 μM) was applied to the tissue bathing solution and the upper horizontal line when naloxone (1 μM) was added to the tissue bathing solution. […] Cyclo [Tyr-Arg-Phe-Gly] is SEQ ID NO:42.
Each bar is the average of at least 60 recordings, and the vertical lines show the standard deviation of the mean. […] Cyclo [Tyr-Arg-Phe-Gly] is SEQ ID NO:42.
Demorphin is a opioid heptapeptide isolated from the skin of South American frogs, and has the following sequence; {H-Tyr-D-Ala-Phe-Gly-Tyr-Pro-Ser-NH2; SEQ ID NO:71). The tetrapeptide analogues (H-Tyr-D-Ala-Phe-Gly-NH-Y; SEQ ID NO:29) are potent analgesics when administered by intracerebroventricular injection. In Example 3 we synthesised the cyclic tetrapeptides cyclo[Tyr-Arg-Phe-Gly] (SEQ ID NO:42) and cyclo[Tyr-Arg-D-Phe-Gly] (SEQ ID NO:42) designated WP 152 using our combination strategies.

[3] = the molecule shown is the open-chain precursor, amide bond, 15-membered ring
[4] = stability to heating in DMSO; type: physicochemical; conditions: 20 h at 70° C. in DMSO
[5] = stability to hydrolysis in aqueous buffer at pH 9; type: physicochemical
[6] = from H-(Hnb)Tyr-Arg-(Hnb)Phe-Ala-OH, amide bond, 12-membered ring
[7] = amide bond, 21-membered ring, BOP/2,6-lutidine, resin, -10.0 °C, with chain assembly
[8] = amide bond, 16-membered ring, HATU/DIEA, DMF, resin, with chain assembly
[9] = amide bond, DIEA, DMF, resin, with chain assembly

## CCC(C)[C@@H]1NC(=O)[C@H](C)NC(=O)C(CC(C)C)NC(=O)[C@H](CO)NC(=O)C(CC(N)=O)NC(=O)[C@H](Cc2ccccc2)NC(=O)[C@@H]2CCCN2C1=O (stereo in doubt) [stylostatin, Cyclo-(Pro-Phe-Asn-Ser-Leu-Ala-Ile)]
[1]
  cytotoxicity: highly cytotoxic

## CC[C@H](C)[C@@H]1NC(=O)[C@H](C)NC(=O)[C@H](CC(C)C)NC(=O)[C@H](CO)NC(=O)[C@H](CC(N)=O)NC(=O)[C@H](Cc2ccccc2)NC(=O)[C@@H]2CCCN2C1=O [Cyclo-(Pro-Phe-Asn-Ser-Leu-Ala-Ile)]
From H-Asn-Ser-Leu-Ala-Ile-Pro-Phe-OH, amide bond, 21-membered ring, BOP/DIPEA, DMF, 1.0 mM, -10.0 °C
  ring closure, yield after HPLC: 48%

## N=C(N)NCCC[C@H]1C(=O)N[C@@H](Cc2ccccc2)C(=O)NCC(=O)N(Cc2c(O)cccc2[N+](=O)[O-])[C@@H](Cc2ccc(O)cc2)C(=O)N1Cc1c(O)cccc1[N+](=O)[O-] [Cyclo-[(Hnb)Tyr-(Hnb)Arg-Phe-Gly]]
From H-(Hnb)Tyr-(Hnb)Arg-Phe-Gly-OH?, amide bond, 12-membered ring, BOP/DIEA, DMF, 1.1 mM, 25.0 °C
  ring closure, yield after HPLC: 61%

## C[C@@H]1NC(=O)[C@H](Cc2ccccc2)N(Cc2c(O)cccc2[N+](=O)[O-])C(=O)[C@H](CCCNC(=N)N)NC(=O)[C@H](Cc2ccc(O)cc2)N(Cc2c(O)cccc2[N+](=O)[O-])C1=O [Cyclo-[(Hnb)Tyr-Arg-(Hnb)Phe-Ala]]
From H-(Hnb)Tyr-Arg-(Hnb)Phe-Ala-OH?, amide bond, 12-membered ring
  ring closure, yield after HPLC: 60%

## CC(C)C[C@@H]1NC(=O)[C@H](Cc2ccccc2)NC(=O)[C@H](C)N(Cc2cc([N+](=O)[O-])ccc2O)C(=O)[C@H](C)NC(=O)[C@@H]2CCCN2C1=O [Cyclo-[N-(5-nitro-2-hydroxybenzyl)-Ala-Phe-Leu-Pro-Ala]]
From H-(5-nitro-2-hydroxybenzyl)Ala-Phe-Leu-Pro-Ala-OH, amide bond, 15-membered ring, BOP/DIEA, DMF, 1.0 mM, 25.0 °C
  ring closure, yield after HPLC: 51%

## CC(C)C[C@@H]1NC(=O)[C@H](Cc2ccccc2)NC(=O)[C@H](C)N(Cc2c(O)cccc2[N+](=O)[O-])C(=O)[C@H](C)NC(=O)[C@@H]2CCCN2C1=O [Cyclo-[N-(6-nitro-2-hydroxybenzyl)-Ala-Phe-Leu-Pro-Ala]]
From H-(6-nitro-2-hydroxybenzyl)Ala-Phe-Leu-Pro-Ala-OH, amide bond, 15-membered ring, BOP/DIEA, DMF, 1.0 mM, 25.0 °C
  ring closure, yield after HPLC: 39%

## CC(C)C[C@@H]1NC(=O)[C@H](Cc2ccccc2)N(Cc2c(O)cccc2[N+](=O)[O-])C(=O)[C@H](C)NC(=O)[C@H](C)NC(=O)[C@@H]2CCCN2C1=O [Cyclo-[N-(6-nitro-2-hydroxybenzyl)-Phe-Leu-Pro-Ala-Ala]]
From H-(6-nitro-2-hydroxybenzyl)Phe-Leu-Pro-Ala-Ala-OH, amide bond, 15-membered ring, BOP/DIEA, DMF, 1.0 mM, 25.0 °C
  ring closure, yield after HPLC: 44%

## C[C@H]1C(=O)N[C@@H](Cc2ccc(O)cc2)C(=O)N(Cc2c(O)cccc2[N+](=O)[O-])[C@@H](CCCNC(=N)N)C(=O)N[C@@H](Cc2ccccc2)C(=O)N1Cc1c(O)cccc1[N+](=O)[O-] [H-(Hnb)Ala-Tyr-(Hnb)Arg-Phe-OH]
From H-(Hnb)Ala-Tyr-(Hnb)Arg-Phe-OH, amide bond, 12-membered ring, BOP/DIEA, DMF, 1.0 mM, 25.0 °C
  ring closure, yield after HPLC: 53%

## N=C(N)NCCC[C@H]1C(=O)N[C@@H](Cc2ccccc2)C(=O)N(Cc2c(O)cccc2[N+](=O)[O-])CC(=O)N[C@@H](Cc2ccc(O)cc2)C(=O)N1Cc1c(O)cccc1[N+](=O)[O-] [H-(Hnb)Gly-Tyr-(Hnb)Arg-Phe-OH?]
From H-(Hnb)Gly-Tyr-(Hnb)Arg-Phe-OH?, amide bond, 12-membered ring, BOP/DIEA, DMF, 1.18 mM
  ring closure, yield after HPLC: 68%

## COc1ccc(CN2CC(=O)NCC(=O)NCC(=O)N(Cc3ccc(OC)cc3O)CC2=O)c(O)c1 [H-Gly-(HMB)Gly-(HMB)Gly-Gly-OH]
From H-Gly-(HMB)Gly-(HMB)Gly-Gly-OH, amide bond, 12-membered ring, BOP/DIEA, DMF, 1.0 mM
  ring closure, yield after HPLC: 16%

## O=C1CNC(=O)CNC(=O)CNC(=O)CN1 [H-Gly-Gly-Gly-Gly-OH]
From H-Gly-Gly-Gly-Gly-OH, amide bond, 12-membered ring, BOP/DIEA, DMF, 1.0 mM
  ring closure, yield after HPLC: 1%

## CN1CC(=O)NCC(=O)NCC(=O)NCC1=O [H-Gly-Gly-Gly-MeGly-OH]
From H-Gly-Gly-Gly-MeGly-OH, amide bond, 12-membered ring, BOP/DIEA, DMF, 1.0 mM
  ring closure, yield after HPLC: 8%

## CN1CC(=O)NCC(=O)NCC(=O)NCC1=O [H-Gly-Gly-MeGly-Gly-OH]
From H-Gly-Gly-MeGly-Gly-OH, amide bond, 12-membered ring, BOP/DIEA, DMF, 1.0 mM
  ring closure, yield after HPLC: 11%

## CN1CC(=O)NCC(=O)NCC(=O)N(C)CC1=O [H-Gly-Gly-MeGly-MeGly-OH]
From H-Gly-Gly-MeGly-MeGly-OH, amide bond, 12-membered ring
  ring closure, yield after HPLC: 18%

## CN1CC(=O)NCC(=O)NCC(=O)NCC1=O [H-Gly-MeGly-Gly-Gly-OH]
From H-Gly-MeGly-Gly-Gly-OH, amide bond, 12-membered ring, BOP/DIEA, DMF, 1.0 mM
  ring closure, yield after HPLC: 1%

## CN1CC(=O)NCC(=O)N(C)CC(=O)NCC1=O [H-Gly-MeGly-Gly-MeGly-OH]
From H-Gly-MeGly-Gly-MeGly-OH, amide bond, 12-membered ring, BOP/DIEA, DMF, 1.0 mM
  ring closure, yield after HPLC: 2%

## CN1CC(=O)NCC(=O)NCC(=O)N(C)CC1=O [H-Gly-MeGly-MeGly-Gly-OH]
From H-Gly-MeGly-MeGly-Gly-OH, amide bond, 12-membered ring
  ring closure, yield after HPLC: 13%

## CN1CC(=O)NCC(=O)N(C)CC(=O)N(C)CC1=O [H-Gly-MeGly-MeGly-MeGly-OH]
From H-Gly-MeGly-MeGly-MeGly-OH, amide bond, 12-membered ring, BOP/DIEA, DMF, 1.0 mM
  ring closure, yield after HPLC: 5%

## CC[C@H](C)[C@@H]1NC(=O)[C@H](C)NC(=O)[C@H](CC(C)C)NC(=O)[C@H](CO)NC(=O)[C@H](CC(N)=O)NC(=O)[C@H](Cc2ccccc2)NC(=O)[C@@H]2CCCN2C1=O [cyclo-(Pro-Phe-Asn-Ser-Leu-Ala-Ile)]
From H-Pro-Phe-Asn-Ser-Leu-Ala-Ile-OH, amide bond, 21-membered ring, BOP/DIPEA, DMF, -10.0 °C
  ring closure, yield after HPLC: 67%

## C[C@@H]1NC(=O)[C@H](Cc2ccccc2)N(Cc2c(O)cccc2[N+](=O)[O-])C(=O)[C@H](CCCNC(=N)N)NC(=O)[C@H](Cc2ccc(O)cc2)N(Cc2c(O)cccc2[N+](=O)[O-])C1=O [cyclo-[(Hnb)Tyr-Arg-(Hnb)Phe-(D)Ala]]
[6]
  ring closure, yield after HPLC: 18%

## C[C@@H]1NC(=O)[C@H](Cc2ccccc2)N(Cc2c(O)cccc2[N+](=O)[O-])C(=O)[C@H](CCCNC(=N)N)NC(=O)[C@H](Cc2ccc(O)cc2)N(Cc2c(O)cccc2[N+](=O)[O-])C1=O [cyclo-[(Hnb)Tyr-Arg-(Hnb)Phe-Ala]]
[6]
  ring closure, yield after HPLC: 13%

## C=CCN1CC[C@]23c4c5ccc(O)c4O[C@H]2C(=O)CC[C@@]3(O)[C@H]1C5 [naloxone, reference compound]
[2]; naloxone 1 μM added to the tissue bathing solution with the tetrapeptide mixture (1 μM)
  effect of naloxone on the EJC reduction caused by the cyclic tetrapeptide mixture: inhibits this effect; also recorded: reversed

## Cyclo-(Pro-Phe-Asn-Ser-Leu-Ala-Ile)
[7]
  ring closure, yield after HPLC: 10%

## Cyclo-(SCH2CH2-Gly-Arg-Pro-Phe-Gly)
Other bond, 18-membered ring, BOP/DIEA, DMF, 1.0 mM, -10.0 °C
  ring closure, yield after HPLC: 31%

## Cyclo-[Arg-Gly-Asp-Gly-β-Ala]
[8]
  ring closure, yield after HPLC: 9%

## Cyclo-[DGCatRG]
Amide bond, 16-membered ring, DIEA, DMF, resin, with chain assembly
  ring closure, yield after HPLC: 11%

## Cyclo-[Leu-Asp-Val-Gly-β-Ala]
[8]
  ring closure, yield after HPLC: 18%

## Cyclo-[Phe-Lys-Trp-Gly-β-Ala]
[8]
  ring closure, yield after HPLC: 15%

## H-Ala-Phe-Leu-Pro-Ala-O-linker-resin?
[3]; resin
  ring closure, conversion: 0%

## H-Ala-Phe-Leu-Pro-Ala-OH?
[3]; BOP/DIEA
  ring closure, conversion: 0%

## cyclo-(Pro-Phe-Asn-Ser-Leu-Ala-Ile)
[7]
  ring closure, yield after HPLC: 25%

## cyclo-[(Hnb)Tyr-Arg-(Hnb)Phe-(D)Ala] [Product A]
[4]
  stability to heat: Unstable to heat
[5]
  stability to hydrolysis: Stable to hydrolysis

## cyclo-[(Hnb)Tyr-Arg-(Hnb)Phe-Ala] [Product B]
[4]
  stability to heat: Stable to heat
[5]
  stability to hydrolysis: Stable

## cyclo-[D-G-Amb-R-G]
Amide bond, DIPEA, DMF, resin, with chain assembly
  ring closure, yield after HPLC: 49%

## cyclo-[DAmbGRG]
[9]
  ring closure, yield after HPLC: 5%

## cyclo-[DGAmbRG]
[9]
  ring closure, yield after HPLC: 7.6%

## cyclo[Tyr-Arg-Phe-Gly] (SEQ ID NO:42) and cyclo[Tyr-Arg-D-Phe-Gly] (SEQ ID NO:42) [WP 152]
[2]; 1 μM in tissue bathing solution, EJCs recorded during 100 minutes (FIG. 10)
  EJC amplitude and frequency: greatly reduces the EJC amplitude and frequency
[2]; 1 μM, following 20 minutes of exposure, each bar average of at least 60 recordings (FIG. 11)
  average excitatory junction current (EJC) amplitude and frequency: highly significant decrease
[2]; FIGS. 10 and 11, mixture of compounds
  transmitter release: greatly reduces transmitter release
[2]; one or both of the compounds, strongly suggested, not measured directly
  opiate agonism inferred from reversal by naloxone: potent μ-opiate agonists
